# Laboratory results published in patent US10744114B2, “Use of eupatilin as pharmaceutical composition for prevention and treatment of fibrosis using EMT inhibitory activity” (OSTEONEUROGEN INC., priority 2016, dated 2020).
# Tested on: ONGHEPA1 cells
# Experiment: TGF-β-induced fibrosis of ONGHEPA1 cells (microscope)
# Assay type: cell-based, mouse
# Settings: 24 hr; for inhibition of the progress of fibrosis (differentiation into myofibroblasts): TGF-β 5 ng/mL plus 50 μM compound; for toxicity to ONGHEPA1 cells: TGF-β plus 50 μM compound
# Source text: The liver tissue was separated from C57BL/6 mice and a single-cell suspension thereof was made, and immortalized cells were obtained through continuous culture and were confirmed to be mesenchymal stem cells (MSC) of HSC via RT-PCR (Reverse Transcription Polymerase Chain Reaction) using MC (Immunohistochemistry) and FACS (Fluorescence-Activated Cell Sorting). This cell line was called “ONGHEPA1”, and was deposited with the Korean Collection for Type Cultures (KCTC) of the Korea Research Institute of Bioscience and Biotechnology and assigned accession number KCTC13086BP.
# Using such properties of HSC, the fibrotic characteristics of ONGHEPA1 were measured. To induce fibrosis, TGF-β (transforming growth factor beta) was added, and the morphologies of the cells were observed after 6 hr, 12 hr, 24 hr, and 48 hr. Consequently, fibrosis was confirmed to progress considerably after 24 hr and further progress after 48 hr (A of FIG. 6).
# While ONGHEPA1 cells were incubated, they were treated with TGF-β to induce fibrosis, and 50 μM of eupatilin was added to the culture medium.
# In order to more clearly evaluate the effect of eupatilin as above, changes were measured when ONGHEPA1 cells were first treated with eupatilin, washed to remove eupatilin and then treated with TGF-β to induce fibrosis. […] This means that eupatilin is directly associated with the course of fibrosis to thus inhibit the progress of fibrosis.
# On the contrary, changes were measured when ONGHEPA1 cells were first treated with TGF-β to induce fibrosis, washed to remove TGF-β and then treated with eupatilin. […] Even when fibrosis was already progressed, eupatilin was able to restore the cells to their original normal condition.
# In order to more clearly evaluate whether eupatilin was able to restore the cells that already undergone fibrosis to normal cells, changes were measured when ONGHEPA1 cells were treated with TGF-β for 24 hr to induce complete fibrosis and then treated with eupatilin. […] This means that fibrosis that has progressed considerably can be effectively treated using eupatilin.
# The effects of various chromone derivatives other than eupatilin on fibrosis were measured in the same manner as in Example 3-3. While ONGHEPA1 cells were incubated, fibrosis was induced by TGF-β, and a chromone derivative was added at a concentration of 50 μM to the culture medium.
smiles,measurement,setting,value
O=c1cc(-c2ccc(O)c(O)c2O)oc2cc(O)cc(O)c12 [ONGE300],inhibition of the progress of fibrosis (differentiation into myofibroblasts),,no effects or very low effects
same,inhibition of the progress of fibrosis (differentiation into myofibroblasts),listed as Chemical Formula 11,no effects on the inhibition of fibrosis
"COc1cc2oc(-c3ccc(O)cc3)cc(=O)c2c(O)c1OC [ONGC200, 5-hydroxy-2-(4-hydroxyphenyl)-6,7-dimethoxy-chromone]",inhibition of the progress of fibrosis (differentiation into myofibroblasts),,effective at inhibiting the progress of fibrosis
COc1ccc(-c2cc(=O)c3c(O)c(O)c(O)cc3o2)cc1 [ONGD200],toxicity to ONGHEPA1 cells,,toxicity such as necrosis
COc1c(-c2ccccc2)oc2c(OC)c(O)cc(O)c2c1=O [ONGA100],inhibition of the progress of fibrosis (differentiation into myofibroblasts),,no effects or very low effects
same,inhibition of the progress of fibrosis (differentiation into myofibroblasts),listed as Chemical Formula 8,no effects on the inhibition of fibrosis
"COc1cc2oc(-c3ccc(O)c(O)c3)cc(=O)c2c(O)c1OC [ONGH200, 2-(3,4-dihydroxyphenyl)-5-hydroxy-6,7-dimethoxy-chromone]",inhibition of the progress of fibrosis (differentiation into myofibroblasts),,effective at inhibiting the progress of fibrosis
same,inhibition of the progress of fibrosis (differentiation into myofibroblasts),listed as Chemical Formula 7,superior fibrosis-inhibiting effects
COc1cc(-c2oc3cc(O)c(OC)c(O)c3c(=O)c2OC)ccc1O [ONGH300],toxicity to ONGHEPA1 cells,,toxicity such as necrosis
"COc1c(O)cc2oc(-c3ccc(O)c(O)c3)cc(=O)c2c1O [ONGI300, 2-(3,4-dihydroxyphenyl)-5,7-dihydroxy-6-methoxy-chromone]",inhibition of the progress of fibrosis (differentiation into myofibroblasts),,effective at inhibiting the progress of fibrosis
same,inhibition of the progress of fibrosis (differentiation into myofibroblasts),listed as Chemical Formula 3,superior fibrosis-inhibiting effects
COc1c(-c2ccc(O)cc2)oc2cc(O)cc(O)c2c1=O [ONGB200],inhibition of the progress of fibrosis (differentiation into myofibroblasts),,no effects or very low effects
same,inhibition of the progress of fibrosis (differentiation into myofibroblasts),listed as Chemical Formula 10,no effects on the inhibition of fibrosis
"COc1c(O)cc(O)c2c(=O)cc(-c3ccccc3)oc12 [wogonin, reference compound]",inhibition of the progress of fibrosis (differentiation into myofibroblasts),,no effects or very low effects
same,inhibition of the progress of fibrosis (differentiation into myofibroblasts),listed as Chemical Formula 9,no effects on the inhibition of fibrosis
COc1ccc(-c2oc3cc(O)c(OC)c(O)c3c(=O)c2OC)cc1O [ONGD400],toxicity to ONGHEPA1 cells,,toxicity such as necrosis
"COc1c(O)cc2oc(-c3ccc(O)cc3)cc(=O)c2c1O [ONGE200, 5,7-dihydroxy-2-(4-hydroxyphenyl)-6-methoxy-chromone]",inhibition of the progress of fibrosis (differentiation into myofibroblasts),,effective at inhibiting the progress of fibrosis
same,inhibition of the progress of fibrosis (differentiation into myofibroblasts),listed as Chemical Formula 5,superior fibrosis-inhibiting effects
